The test system of the test is STAT5 Y694 phosphorylation. The test can be described thus: Protein electrophoresis and blotting of STAT5 Y694 phosphorylation in Jurkat cells stimulated with human interferon beta. To be noted: for Example of Effect 1: Inhibiting Ability (Protein Electrophoresis and Blotting): observed pSTAT5 bands at 10 μM and 100 μM; for Inhibiting Ratio (0% for vehicle control): 1 hour pretreatment, 20 ng/ml human interferon beta 30 minutes, pSTAT5/GAPDH. The test is classed as cell-based. Here is the method: Example of Effect 1: Protein Electrophoresis and Blotting Experiment
Standard protein electrophoresis and chemiluminescence imaging equipment (Bio-Rad);
Protein lysate RIPA (Lianke Biological; Cat #WB020); Western blot transfer membrane PVDF (Millipore; Cat #IPVH00010);
Jurkat cells (ATCC American Standard Culture Center, TIB152) were cultured in a 6-well plate at a density of 1×10^6/ml with RPMI medium […] 10% fetal bovine serum in a humidified incubator at 37° C. and maintained at 5% carbon dioxide overnight. On the second day, the cells were pretreated with compounds of different concentrations (the mother liquor of the compound prepared by dimethyl sulfoxide was diluted in the medium at the required concentration) for 1 hour, and then stimulated with 20 ng/ml human interferon beta for 30 minutes, it was mixed thoroughly and then placed in an incubator at 37° C. environment. […] Then an appropriate volume of RIPA Lysis Solution was added, it was mixed well, and placed on ice for 1 hour, inverted and mixed several times in the middle. Then, the cell lysate was centrifuged at 12000 rpm at 4° C. for 10 minutes, and the supernatant was transferred to another test tube, aliquoted and stored at −20° C. until use.
An equal volume of protein lysate was mixed with an appropriate 6-fold protein loading buffer (Biyun Tian Biochemical Company P0015F), and the mixture was heated at 95 degrees for 10 minutes, after full denaturation, the protein sample was added to the polyacrylamide gel (self-made, raw material purchased from Soleibao Biotechnology Company A1010, 30% acrylamide solution), and electrophoresis was performed at the appropriate voltage for 1 hour, until the strips were fully separated. It was transferred to a polyvinylidene fluoride membrane according to standard procedures, and blocked with 5% skim milk for 1 hour, and the specified antibody was added, and it was diluted 1:1000 in 3% bovine serum albumin, and it was incubated overnight for four degrees. It was thoroughly rinsed, incubated with the secondary antibody, exposed to chemiluminescence and signals were collected. ImageJ software was used to quantify the obtained chemiluminescence results. The same area was selected, the gray values of STAT5 phosphorylation band and GAPDH band of each sample were analyzed, and the ratio of pSTAT5/GAPDH level was calculated. The value of the solvent-treated sample was 100%, and the remaining samples were converted into relative data in the same proportion, that is, the percentage corresponding to the solvent sample. […] The solvent control group was the same as the test compound group except that DMSO was used instead of the DMSO solution of the test compound. N1 (Pimozide) was a specific positive control.

On to `O=C(O)c1ccc(CC(=O)N2CCC(n3c(=O)[nH]c4ccccc43)CC2)cc1` [Example X6, 4-(2-oxo-2-(4-(2-oxo-2,3-dihydro-1H-benzo[d]imidazol-1-yl)piperidine-1-yl)ethyl)benzoic acid], for which the “Example of Effect 1: Inhibiting Ability (Protein Electrophoresis and Blotting)” value (“Example of Effect 1: Inhibiting Ability” below) is listed as “−”.
Take `O=C(Cc1ccc(C(F)(F)F)cc1)N1CCC(n2c(=O)[nH]c3cc(C(F)(F)F)ccc32)CC1` [GEN1-005, 5-(trifluoromethyl)-1-(1-(2-(4-(trifluoromethyl)phenyl)acetyl)piperidin-4-yl)-1H-benzo[d]imidazole-2(3H)-one]: the “Example of Effect 1: Inhibiting Ability” value is reported as “+”. In addition, where the note is “1 μM”, the “Inhibiting Ratio (0% for vehicle control)” value was 28.0%. Besides, the “Inhibiting Ratio (0% for vehicle control)” value (10 μM) is reported as 44.4%. Besides, the “Inhibiting Ratio (0% for vehicle control)” value (100 μM) is 95.6%.
For `O=C1CN(C2CCN(C(=O)Cc3ccc(C(F)(F)F)cc3)CC2)c2c(cccc2[N+](=O)[O-])N1` [GEN1-101, 5-nitro-4-(1-(2-(4-(trifluoromethyl)phenyl)acetyl)piperidin-4-yl)-3,4-dihydroquinoxaline-2(1H)-one], the “Example of Effect 1: Inhibiting Ability” value is “+”.
Still for that read-out and setting: the same measure for `O=C(Cc1ccc(C(F)(F)F)cc1)N1CCC(N2C/C(=N\O)Nc3ccccc32)CC1` [GEN1-150, (E)-1-(4-(3-(hydroxyimino)-3,4-dihydroquinoxaline-1(2H)-yl)piperidin-1-yl)-2-(4-(trifluoromethyl)phenyl)ethane-1-one]: “−”; for `CC(=O)N1CCN(C2CCN(C(=O)Cc3ccc(C(F)(F)F)cc3)CC2)c2ccccc21` [GEN1-243, 1-(4-(4-acetyl-3,4-dihydroquinoxaline-1(2H)-yl)piperidin-1-yl)-2-(4-(trifluoromethyl)phenyl)ethenone]: “+”.
`O=C(Cc1ccccc1)N1CCC(n2c(=O)[nH]c3ccccc32)CC1` [Example X4, 1-(1-(2-phenylacetyl)piperidin-4-yl)-1H-benzo[d]imidazole-2(3H)-one]: the “Example of Effect 1: Inhibiting Ability” value is given as “−”. Besides, for the setting “1 μM”, the “Inhibiting Ratio (0% for vehicle control)” value is reported as 21.2%. In addition, for the setting “10 μM”, the “Inhibiting Ratio (0% for vehicle control)” value is listed as 5.3%. Moreover, the “Inhibiting Ratio (0% for vehicle control)” value (100 μM) is 87.8%.
`O=C(Cc1ccc(O)cc1)N1CCC(n2c(=O)[nH]c3ccccc32)CC1` [GEN1-071, 1-(1-(2-(4-hydroxyphenyl)acetyl)piperidin-4-yl)-1H-benzo[d]imidazol-2(3H)-one]: the “Example of Effect 1: Inhibiting Ability” value was “−”.
Same read-out and setting: then `O=C(Cc1ccc(C(F)(F)F)o1)N1CCC(n2c(=O)[nH]c3ccccc32)CC1` [GEN1-078, 1-(1-(2-(5-(trifluoromethyl)furan-2-yl)acetyl)piperidin-4-yl)-1H-benzo[d]imidazol-2(3H)-one], with “+”.
Take `O=C(Cc1ccc(C2CC2)cc1)N1CCC(n2c(=O)[nH]c3ccccc32)CC1` [GEN1-032, 1-(1-(2-(4-cyclopropylphenyl)acetyl)piperidin-4-yl)-1H-benzo[d]imidazole-2(3H)-one]: the “Example of Effect 1: Inhibiting Ability” value is “+”. Under “1 μM”, the “Inhibiting Ratio (0% for vehicle control)” value is −16.3%. The “Inhibiting Ratio (0% for vehicle control)” value (10 μM) amounted to 13.8%. In addition, the “Inhibiting Ratio (0% for vehicle control)” value (100 μM) is given as 94.9%.
On the same counts, the results for `COc1ccc2c(c1)[nH]c(=O)n2C1CCN(C(=O)Cc2ccc(C(F)(F)F)cc2)CC1` [GEN1-007, 5-methoxy-1-(1-(2-(4-(trifluoromethyl)phenyl)acetyl)piperidin-4-yl)-1H-benzo[d]imidazole-2(3H)-one] are “+”, 42.4%, 54.8% and 96.6%.
Take `N#Cc1ccc2[nH]c(=O)n(C3CCN(C(=O)Cc4ccc(C(F)(F)F)cc4)CC3)c2c1` [GEN1-010, 2-oxo-3-(1-(2-(4-(trifluoromethyl)phenyl)acetyl)piperidin-4-yl)-2,3-dihydro-1H-benzo[d]imidazole-5-carbonitrile]: the “Example of Effect 1: Inhibiting Ability” value was “+”. Besides, the “Inhibiting Ratio (0% for vehicle control)” value (1 μM) is on record as −29.0%. The “Inhibiting Ratio (0% for vehicle control)” value (10 μM) is listed as 17.5%. In addition, the “Inhibiting Ratio (0% for vehicle control)” value (100 μM) is listed as 94.8%.
For `O=C(Cn1c(=O)[nH]c2ccccc21)N1CCC(O)(c2ccc(C(F)(F)F)cc2)CC1` [GEN1-085, 1-(2-(4-hydroxy-4-(4-(trifluoromethyl)phenyl)piperidin-1-yl)-2-oxoethyl)-1H-benzo[d]imidazol-2(3H)-one], the “Example of Effect 1: Inhibiting Ability” value is reported as “−”.
On the same count and under the same terms, then `O=C(Nc1ccccn1)NC1CCN(C(=O)Cc2ccc(C(F)(F)F)cc2)CC1` [GEN1-163, 1-(pyridin-2-yl)-3-(1-(2-(4-(trifluoromethyl)phenyl)acetyl)piperidin-4-yl)urea], with “−”; and `O=C1CCN(C2CCN(C(=O)Cc3ccc(C(F)(F)F)cc3)CC2)c2ccccc2N1` [GEN1-102, 5-(1-(2-(4-(trifluoromethyl)phenyl)acetyl)piperidin-4-yl)-4,5-dihydro-1H-benzo[b][1,4]diazepine-2(3H)-one], with “+”.
Consider `O=c1[nH]c2ccccc2n1-c1ccn2c(=O)cc(Cc3ccc(F)cc3)cc2c1` [Example X9, 2-(4-fluorobenzyl)-8-(2-oxo-2,3-dihydro-1H-benzo[d]imidazol-1-yl)-4H-quinazine-4-one], for which the “Example of Effect 1: Inhibiting Ability” value is reported as “+”. Also, where the note is “1 μM”, the “Inhibiting Ratio (0% for vehicle control)” value was 6.0%. Besides, the “Inhibiting Ratio (0% for vehicle control)” value (10 μM) was found to be 44.3%. Further, where the note is “100 μM”, the “Inhibiting Ratio (0% for vehicle control)” value is given as 100.0%.
With `O=C(Cc1ccc(C(F)(F)F)cc1)N[C@H]1CC[C@H](n2c(=O)[nH]c3ccccc32)CC1` [GEN1-022, Trans-N-(4-(2-oxo-2,3-dihydro-1H-benzo[d]imidazol-1-yl)cyclohexyl)-2-(4-(trifluoromethyl)phenyl)acetamide], the “Example of Effect 1: Inhibiting Ability” value is given as “−”. Also, under “1 μM”, the “Inhibiting Ratio (0% for vehicle control)” value turned out to be 15.8%. In addition, the “Inhibiting Ratio (0% for vehicle control)” value (10 μM) is 29.5%. Further, the “Inhibiting Ratio (0% for vehicle control)” value (100 μM) is 81.2%.
`CC(C)(C)c1ccc(CC(=O)N2CCC(N3CC(=O)Nc4ccccc43)CC2)cc1` [GEN1-122, 4-(1-(2-(4-(tert-butyl)phenyl)acetyl)piperidin-4-yl)-3,4-dihydroquinoxaline-2(1H)-one]: the “Example of Effect 1: Inhibiting Ability” value is “+”.
On the same count and under the same terms, then `NC(=O)c1cccc2[nH]c(=O)n(C3CCN(C(=O)Cc4ccc(C(F)(F)F)cc4)CC3)c12` [GEN1-095, 2-oxo-3-(1-(2-(4-(trifluoromethyl)phenyl)acetyl)piperidin-4-yl)-2,3-dihydro-1H-benzo[d]imidazol-4-carboxamide], with “−”.
As to `O=C(Cc1ccc(C(F)(F)F)cc1)N[C@H]1CC[C@@H](n2c(=O)[nH]c3ccccc32)CC1` [GEN1-021, Cis-N-(4-(2-oxo-2,3-dihydro-1H-benzo[d]imidazol-1-yl)cyclohexyl)-2-(4-(trifluoromethyl)phenyl)acetamide], the “Example of Effect 1: Inhibiting Ability” value is given as “+”. Also, the “Inhibiting Ratio (0% for vehicle control)” value (1 μM) is on record as −39.8%. The “Inhibiting Ratio (0% for vehicle control)” value (10 μM) is −26.3%. Further, the “Inhibiting Ratio (0% for vehicle control)” value (100 μM) is 97.6%.
Turning to `O=C(Cc1ccc(C(F)(F)F)cc1)N1CCC(N2c3ccccc3NS2(=O)=O)CC1` [GEN1-054, 1-(4-(2,2-dioxybenzo[c] [1,2,5]thiadiazole-1(3H)-yl)piperidin-1-yl)-2-(4-(trifluoromethyl)phenyl)ethenone], the “Example of Effect 1: Inhibiting Ability” value was “−”.
`O=C(Cc1ccc(-c2ccccc2)cc1)N1CCC(n2c(=O)[nH]c3ccccc32)CC1` [GEN1-033, 1-(1-(2-([1,1′-biphenyl]-4-yl)acetyl)piperidin-4-yl)-1H-benzo[d]imidazole-2(3H)-one]: the “Example of Effect 1: Inhibiting Ability” value is given as “+”. Also, the “Inhibiting Ratio (0% for vehicle control)” value (1 μM) was 12.8%. In addition, the “Inhibiting Ratio (0% for vehicle control)” value (10 μM) was found to be 7.6%. For the same compound, the “Inhibiting Ratio (0% for vehicle control)” value (100 μM) turned out to be 98.0%.
As to `O=C1CN(C2CCN(C(=O)Cc3ccc4ncccc4c3)CC2)c2ccccc2N1` [GEN1-120, 4-(1-(2-(quinolin-6-yl)acetyl)piperidin-4-yl)-3,4-dihydroquinoxaline-2(1H)-one], the “Example of Effect 1: Inhibiting Ability” value was “−”.

The values are drawn from US20230099441A1, “HETEROCYCLIC COMPOUND, APPLICATION THEREOF, AND COMPOSITION CONTAINING SAME” (GenEros Biopharma Ltd., priority 2019, published 2023).
